Data reported in patent US12023378B2, “Covalently linked antigen-antibody conjugates” (Hoffmann-La Roche Inc., priority 2012, dated 2024).

What was measured:
[1] = Dig-peptide serum kinetic: Western blot detection of digoxigenylated polypeptide in serum; assay type: in vivo, mouse
Experimental: (§1) Serum samples were stored at −80° C.
The determination of the amount of digoxigenylated peptide in the serum at the given time points was difficult compared to the detection of Dig-Cy5 as no direct means to detect the polypeptide in serum samples was available. Therefore, a Western-Blot related assay to detect digoxigenylated peptide in serum was established. In a first step, the serum samples were separated on reducing SDS-PAGE. Because sample preparation included exposure of the serum to high concentrations of SDS and reducing agents, complexed Dig-polypeptide conjugates can become released from the (completely denatured/unfolded) anti-digoxigenin antibody, whereas covalently conjugates remained bound. To mediate the release of the polypeptide from the non-covalent antibody complex and separate the individual components by SDS-PAGE, 2 μl of each serum sample was diluted in 18 μl 20 mM histidine/140 mM NaCl pH 6.0, mixed with 6.7 μl of 4×LDS sample buffer and 3 μl of 10× sample reducing agent (NuPAGE, Invitrogen) for 5 min at 95° C. As a control, 2 μl of serum of an untreated mouse of the same strain was used. […] Digoxigenylated polypeptides were subsequently detected on the membrane with an anti-digoxigenin antibody. […] Chemiluminescence was detected with the Lumilmager F1 (Roche) with an exposure time of 20 min.

[2] = mouse, in vivo
Excerpt: The control group was not pre-injected with the anti-biotin antibody.

[3] = mouse, in vivo; remark: listed apart in the source
Experimental: The objective of the described peptide modification technology is to improve the therapeutic applicability of peptides. Major bottlenecks for therapeutic application of peptides are currently limited stability in vivo and/or short serum half-life and fast clearance. The PK parameters of antibody conjugates of fluorophores were determined in vivo and compare with the PK of non-covalent antibody-fluorophore complexes. Therefore, (i) the anti-biotin antibody VH53C was covalently conjugated to the biotinylated fluorophore Biot-Cys-Cy5, (ii) a non-covalent complex of the anti-biotin antibody with biotinylated fluorophore Biot-Cy5 was generated, (iii) the covalently conjugated and the non-covalently complexed compounds were applied to animals and (iv) the serum concentrations of the compounds over time in these animals was measured by determination of the fluorescence of Cy5 (A650), and that of the corresponding antibody by an ELISA method that specifically detects the humanized antibody.
as §1

Row | relative Cy5-mediated fluorescence in serum [3] | Molecule | presence of digoxigenylated polypeptide in serum (Western blot signal) ([1]; 32.1 nmol, 0.08 h to 24 h after administration, FIG. 35) | half-life / persistence in the serum of mice ([1]; Western blot, up to 24 hrs.) | serum half-life and exposure levels [2]
1 |  | CC[C@H](C)[C@H](NC(C)=O)C(=O)N[C@@H](CCCCNC(=O)CCOCCOCCOCCNC(=O)CO[C@H]1CC[C@@]2(C)[C@H](CC[C@@H]3[C@@H]2C[C@@H](O)[C@]2(C)[C@@H](C4=CC(=O)OC4)CC[C@]32O)C1)C(=O)N1CCN(c2ccc3ncn(CC(=O)N[C@@H](CCCNC(=N)N)C(=O)N[C@@H](Cc4c[nH]cn4)C(=O)N[C@@H](Cc4ccc(O)cc4)C(=O)N[C@@H](CC(C)C)C(=O)N[C@@H](CC(N)=O)C(=O)N[C@@H](Cc4c[nH]c5ccccc45)C(=O)N[C@H](C(=O)N[C@H](C(=O)N[C@@H](CCCNC(=N)N)C(=O)N[C@@H](CCC(N)=O)C(=O)N(C)[C@@H](CCCNC(=N)N)C(=O)N[C@@H](Cc4ccc(O)cc4)C(N)=O)[C@@H](C)O)C(C)C)c(=O)c3c2)CC1 [non-complexed polypeptide] | barely any signal associable to the small polypeptide was detectable even at the earliest time point | very short half-life | 
2 | not detectable | Biotin-O2Oc-Ser-O2Oc-DADOO-Cy5 [Biotin-Ser-Cy5] |  |  | low serum half-life and low exposure levels
